From EPA's ToxValDB 9.5 (doi:10.2903/j.efsa.2016.4492)
In brackets after ≈: the same amount, converted by molar mass.

Assays:
Apis mellifera = settings: acute, mortality
Typhlodromus pyri = assay: LR50; higher = less toxic; settings: not reported; mortality
Oncorhynchus mykiss = settings: acute; duration: 96 hours; mortality
Pimephales promelas = settings: chronic/long-term; duration: 32 days
Canidae = settings: chronic; duration: 1 years; oral; Dog Other; body weight
Myriophyllum aquaticum = settings: chronic/long-term; duration: 7 days; growth
Folsomia candida = settings: chronic/long-term; duration: 28 days
Daphnia magna = settings: chronic/long-term; duration: 21 days
Colinus virginianus = settings: mortality

## O=C1CC=C([O-])N=N1.[K+] [Maleic hydrazide, potassium salt]
Apis mellifera; dermal
  LD50: > 100 µg/piece
Apis mellifera; oral, unspecified
  LD50: > 100 µg/piece

## O=c1ccc(=O)[nH][nH]1 [Maleic hydrazide]
Typhlodromus pyri
  LR50: < 3000 g/ha
Oncorhynchus mykiss
  LC50: 79.4 µg/mL (≈ 708 µM)
Rattus norvegicus; acute, oral, M/F, mortality
  LD50: > 2000 mg/kg
Rattus norvegicus; chronic, duration: 2 years, body weight
  NOAEL: 25 mg/kg-day
Rattus norvegicus; reproduction developmental, body weight
  NOAEL: 398 mg/kg-day
Rattus norvegicus; short-term, duration: 28 days, inhalation
  NOAEL: 22 mg/kg-day
Pimephales promelas
  NOEC: 9.6 mg/L
Canidae
  NOAEL: 25 mg/kg-day
Myriophyllum aquaticum
  NOEC: 3.2 mg/L
Folsomia candida
  NOEC: 113 mg/kg
Daphnia magna
  NOEC: 0.57 mg/L
Colinus virginianus; acute, oral
  LD50: > 1490 mg/kg
Colinus virginianus; chronic
  NOEC: 542 mg/kg-day
